Laboratory results published in US9873696B2, “Neprilysin inhibitors” (THERAVANCE BIOPHARMA R&D IP, LLC, priority 2010, dated 2018).
pKi: −log10 of the molar value.

target: T1, human NEP (Homo sapiens, UniProt P08473); test: In vitro enzyme inhibition assay at human NEP (Assay 1); format: biochemical; settings: recombinant enzyme, fluorogenic peptide substrate, 37° C.
T1 construct: purchased R&D Systems, Minneapolis, Minn; 1182-ZN
Procedure, shortened: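 Recombinant enzyme preincubated with compound 30 min at 37 °C, then 10 μM Mca-D-Arg-Arg-Leu-Dap-(Dnp)-OH added in 50 mM HEPES pH 7.5, 100 mM NaCl, 0.01% Tween-20, 10 μM ZnSO4; stopped after 20 min with acetic acid. Fluorescence read at 320/405 nm; Ki from nonlinear fit of v=v0/[1+(I/K′)], reported as pKi.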

T1 sequence (P08473 whole entry): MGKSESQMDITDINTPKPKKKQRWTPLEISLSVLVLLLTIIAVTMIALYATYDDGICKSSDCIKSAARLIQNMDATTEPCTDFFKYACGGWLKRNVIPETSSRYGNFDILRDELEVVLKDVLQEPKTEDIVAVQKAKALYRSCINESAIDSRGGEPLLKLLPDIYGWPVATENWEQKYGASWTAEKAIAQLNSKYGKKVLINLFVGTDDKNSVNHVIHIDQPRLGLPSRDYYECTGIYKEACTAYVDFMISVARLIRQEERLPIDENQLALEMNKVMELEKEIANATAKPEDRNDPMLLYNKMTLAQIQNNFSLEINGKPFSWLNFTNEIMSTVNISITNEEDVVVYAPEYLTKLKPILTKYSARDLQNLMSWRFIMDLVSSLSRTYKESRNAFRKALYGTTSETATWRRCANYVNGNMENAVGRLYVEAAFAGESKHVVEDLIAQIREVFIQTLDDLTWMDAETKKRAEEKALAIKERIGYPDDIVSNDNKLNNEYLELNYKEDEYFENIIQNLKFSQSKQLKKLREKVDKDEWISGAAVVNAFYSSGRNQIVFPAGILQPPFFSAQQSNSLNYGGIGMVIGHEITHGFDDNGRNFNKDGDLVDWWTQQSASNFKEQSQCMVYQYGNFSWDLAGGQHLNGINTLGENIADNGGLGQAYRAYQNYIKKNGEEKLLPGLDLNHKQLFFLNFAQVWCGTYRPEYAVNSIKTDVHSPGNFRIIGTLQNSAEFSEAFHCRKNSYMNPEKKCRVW

Q: With `O=C(NN(Cc1ccc(-c2cccc(Cl)c2O)cc1)C[C@@H](O)C(=O)O)c1cc(O)no1` [Example 8-7, (R)-3-[N-(3′-Chloro-2′-hydroxy-biphenyl-4-ylmethyl)-N′-(3-hydroxy-isoxazole-5-carbonyl)-hydrazino]-2-hydroxy-propionic acid] as the compound, how does the pKi read?
A: 8.00 to 8.90

Q: `CC(=O)c1cc(C(=O)NN(Cc2ccc(-c3cc(Cl)ccc3Cl)cc2)C[C@H](O)C(=O)O)[nH]n1` [Example 8-48, (S)-3-[N′-(5-Acetyl-2H-pyrazole-3-carbonyl)-N-(2′,5′-dichloro-biphenyl-4-ylmethyl)-hydrazino]-2-hydroxy-propionic acid] was tested. Which pKi did it give?
A: 8.00 to 8.90

Q: With `O=C(NN(Cc1ccc(-c2ccccc2Cl)cc1)C[C@@H](O)C(=O)O)c1cc(O)no1` [Example 5-7, (R)-3-[N-(2′-Chloro-biphenyl-4-ylmethyl)-N′-(3-hydroxy-isoxazole-5-carbonyl)-hydrazino]-2-hydroxy-propionic acid] as the compound, how does the pKi read?
A: 8.00 to 8.90

Q: With `O=C(NN(Cc1ccc(-c2cccc(Cl)c2)cc1)C[C@@H](O)C(=O)O)c1cc(C(=O)N2CC[C@@H](O)C2)n[nH]1` [Example 4-14, (R)-3-{N-(3′-Chlorobiphenyl-4-ylmethyl)-N′-[5-((R)-3-hydroxy-pyrrolidine-1-carbonyl)-2H-pyrazole-3-carbonyl]-hydrazino}-2-hydroxy-propionic acid] as the compound, how does the pKi read?
A: ≥ 9.00

Q: How did the pKi turn out when `COc1ccc(Cl)cc1-c1ccc(CN(C[C@@H](O)C(=O)O)NC(=O)c2cc(O)no2)cc1` [Example 8-2, (R)-3-[N-(5′-Chloro-2′-methoxy-biphenyl-4-ylmethyl)-N′-(3-hydroxy-isoxazole-5-carbonyl)-hydrazino]-2-hydroxy-propionic acid] was run?
A: ≥ 9.00

Q: How did the pKi turn out when `CCCc1cc(C(=O)NN(Cc2ccc(-c3cc(Cl)ccc3F)cc2)C[C@@H](O)C(=O)O)on1` [Example 8-31, (R)-3-[N-(5′-Chloro-2′-fluoro-biphenyl-4-ylmethyl)-N′-(3-propyl-isoxazole-5-carbonyl)-hydrazino]-2-hydroxy-propionic acid] was run?
A: ≥ 9.00

Q: `O=C(NN(Cc1ccc(-c2cc(Cl)ccc2F)cc1)C[C@@H](O)C(=O)O)c1cc(Cl)c2nn[nH]c2c1` [Example 8-69, (R)-3-[N′-(7-Chloro-3H-benzotriazole-5-carbonyl)-N-(5′-chloro-2′-fluoro-biphenyl-4-ylmethyl)-hydrazino]-2-hydroxy-propionic acid] was tested. Which pKi did it give?
A: ≥ 9.00

Q: `COc1ccccc1-c1ccc(CN(C[C@H](O)C(=O)O)NC(=O)c2cc(C(C)=O)n[nH]2)cc1` [Example 5-9, (S)-3-[N′-(5-Acetyl-2H-pyrazole-3-carbonyl)-N-(2′-methoxy-biphenyl-4-ylmethyl)-hydrazino]-2-hydroxy-propionic acid] was tested. Which pKi did it give?
A: 8.00 to 8.90

Q: With `O=C(NN(Cc1ccc(-c2cccc(Cl)c2)c(Cl)c1)C[C@@H](O)C(=O)O)c1cc(O)no1` [Example 10-3, (R)-3-[N-(2,3′-Dichloro-biphenyl-4-ylmethyl)-N′-(3-hydroxy-isoxazole-5-carbonyl)-hydrazino]-2-hydroxy-propionic acid] as the compound, how does the pKi read?
A: ≥ 9.00

Q: With `CC(C)(O)c1cc(C(=O)NN(Cc2ccc(-c3cc(Cl)ccc3F)cc2)C[C@@H](O)C(=O)O)[nH]n1` [Example 8-40, (R)-3-{N-(5′-Chloro-2′-fluoro-biphenyl-4-ylmethyl)-N′-[5-(1-hydroxy-1-methyl-ethyl)-2H-pyrazole-3-carbonyl]-hydrazino}-2-hydroxy-propionic acid] as the compound, how does the pKi read?
A: ≥ 9.00

Q: With `O=C(NN(Cc1ccc(-c2cc(F)cc(F)c2)cc1)C[C@H](O)C(=O)O)c1cc(O)no1` [Example 8-26, (S)-3-[N-(3′,5′-Difluoro-biphenyl-4-ylmethyl)-N′-(3-hydroxy-isoxazole-5-carbonyl)-hydrazino]-2-hydroxy-propionic acid] as the compound, how does the pKi read?
A: 7.00 to 7.90

Q: `COc1cc(C(=O)NN(Cc2ccc(-c3cccc(Cl)c3)cc2)C[C@@H](O)C(=O)O)on1` [Example 4-32, (R)-3-[N-(3′-Chlorobiphenyl-4-ylmethyl)-N′-(3-methoxy-isoxazole-5-carbonyl)-hydrazino]-2-hydroxy-propionic acid] was tested. Which pKi did it give?
A: 8.00 to 8.90

Q: `CC(C)Cc1cc(C(=O)NN(Cc2ccc(-c3cc(Cl)ccc3F)cc2)C[C@@H](O)C(=O)O)on1` [Example 8-30, (R)-3-[N-(5′-Chloro-2′-fluoro-biphenyl-4-ylmethyl)-N′-(3-isobutyl-isoxazole-5-carbonyl)-hydrazino]-2-hydroxy-propionic acid] was tested. Which pKi did it give?
A: ≥ 9.00

Q: With `CCc1cc(C(=O)NN(Cc2ccc(-c3cc(Cl)ccc3F)cc2)C[C@@H](O)C(=O)O)on1` [Example 8-14, (R)-3-[N-(5′-Chloro-2′-fluoro-biphenyl-4-ylmethyl)-N′-(3-ethyl-isoxazole-5-carbonyl)-hydrazino]-2-hydroxy-propionic acid] as the compound, how does the pKi read?
A: ≥ 9.00

Q: With `O=C(NN(Cc1ccc(-c2cccc(Cl)c2F)cc1)C[C@@H](O)C(=O)O)c1cc(O)no1` [Example 8-21, (R)-3-[N-(3′-Chloro-2′-fluoro-biphenyl-4-ylmethyl)-N′-(3-hydroxy-isoxazole-5-carbonyl)-hydrazino]-2-hydroxy-propionic acid] as the compound, how does the pKi read?
A: 8.00 to 8.90

Q: `CC(C)c1cc(C(=O)NN(Cc2ccc(-c3cc(Cl)ccc3F)cc2)C[C@@H](O)C(=O)O)on1` [Example 8-32, (R)-3-[N-(5′-Chloro-2′-fluoro-biphenyl-4-ylmethyl)-N′-(3-isopropyl-isoxazole-5-carbonyl)-hydrazino]-2-hydroxy-propionic acid] was tested. Which pKi did it give?
A: ≥ 9.00

Q: How did the pKi turn out when `O=C(NN(Cc1ccc(-c2ccccc2)cc1)C[C@@H](O)C(=O)O)c1cc(O)no1` [Example 2-19, (R)-3-[N-Biphenyl-4-ylmethyl-N′-(3-hydroxyisoxazole-5-carbonyl)-hydrazino]-2-hydroxypropionic acid] was run?
A: 8.00 to 8.90

Q: `O=C(NN(Cc1ccc(-c2cc(Cl)ccc2F)cc1)C[C@@H](O)C(=O)O)c1nn(-c2ccccc2)c(=O)[nH]1` [Example 8-64, (R)-3-[N-(5′-Chloro-2′-fluoro-biphenyl-4-ylmethyl)-N′-(5-oxo-1-phenyl-4,5-dihydro-1H-[1,2,4]triazole-3-carbonyl)-hydrazino]-2-hydroxy-propionic acid] was tested. Which pKi did it give?
A: ≥ 9.00

Q: How did the pKi turn out when `O=C(NN(Cc1ccc(-c2cc(Cl)ccc2F)cc1)C[C@@H](O)C(=O)O)c1nnn[nH]1` [Example 6A, (R)-3-[N-(5′-Chloro-2′-fluorobiphenyl-4-ylmethyl)-N′-(1H-tetrazole-5-carbonyl)-hydrazino]-2-hydroxypropionic Acid] was run?
A: ≥ 9.00
